Measured values reported in patent publication US12558428B2, “Heterobifunctional compounds and their use in treating disease” (Halda Therapeutics OpCo, Inc., priority 2024, dated 2026).
Like-named read-outs stand apart in the source and are kept apart here.

Tests used:
Assay type in all cases: cell-based
[1] = test system: MCF7 cells (ATCC #HTB-22); assay: Cellular growth inhibition assay, MCF7 cells purchased from ATCC; details: Homo sapiens, MCF7, 144 h, Table 8-A; MCF7 cells purchased from ATCC; six days; CellTiter-Glo; read-out: GI50
Summary of the method: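 GI50 values come from a four-parameter fit of CellTiter-Glo 2.0 luminescence after six days of compound exposure at 37° C. Seeding density depended on the source: 225 cells/well for ECACC MCF7, 1,500 for ATCC. Medium was RPMI 1640 with 10% FBS and 0.2 U/ml insulin.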

[2] = test system: T-Rex 293 cells having increased expression of estrogen receptor alpha protein; assay: Cellular growth inhibition assay, T-Rex 293 cells, (+) doxycycline; details: T-REx-293, 72 h, 72 hours
Summary of the method: (§1)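 Cells of an inducible ERα-expressing T-Rex 293 clone are seeded in charcoal-dextran FBS medium with or without 3 ng/mL doxycycline, then treated after 24 h with compound dilutions (0.5% DMSO) for 72 h. Growth inhibition is measured by CellTiter-Glo luminescence and expressed as GI50.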

[3] = test system: T-Rex 293 cells lacking increased expression of estrogen receptor alpha protein; assay: Cellular growth inhibition assay, T-Rex 293 cells, (−) doxycycline; details: T-REx-293, 72 h, 72 hours
Summary of the method: as §1

[4] = Table 7-A, T-Rex 293 cells with doxycycline (increased ERα expression), CellTiter-Glo, read-out: (+) Dox GI50
[5] = Table 7-A, T-Rex 293 cells without doxycycline (lacking increased ERα expression), CellTiter-Glo, read-out: (−) Dox GI50

Row | SMILES | GI50 [1] [nM] | GI50 [2, 4] [nM] | GI50 [3, 5] [nM] | GI50 ([2]; Table 7-B, T-Rex 293 cells with doxycycline (increased ERα expression), CellTiter-Glo, read-out: (+) Dox GI50) [nM] | GI50 ([3]; Table 7-B, T-Rex 293 cells without doxycycline (lacking increased ERα expression), CellTiter-Glo, read-out: (−) Dox GI50) [nM] | GI50 ([2]; T-Rex 293 cells with doxycycline-induced ERα expression, CellTiter-Glo 2.0, read-out: (+) Dox TRex ERa (GI50)) [nM] | GI50 ([3]; T-Rex 293 cells without doxycycline, CellTiter-Glo 2.0, read-out: (−) Dox TRex ERa (GI50)) [nM]
1 | Cc1sc2c(c1C)C(c1ccc(N3CC(O)(CN4CCN(CC5CN(c6ccc(C7=C(c8ccccc8)CCCc8cc(C(=O)O)ccc87)cc6)C5)CC4)C3)cc1)=N[C@@H](C)c1nnc(C)n1-2 [IV-45] | < 50 | < 50 | < 50 |  |  |  | 
2 | Cc1sc2c(c1C)C(c1ccc(N3CC(CN4CCN(CC5CN(c6ccc(C7=C(c8ccc(Cl)cc8Cl)CCCc8cc(C(=O)O)ccc87)cc6)C5)CC4)C3)cc1)=N[C@@H](C)c1nnc(C)n1-2 [IV-8] | < 50 | < 50 | 500 to 2500 |  |  |  | 
3 | Cc1sc2c(c1C)C(c1ccc(N3CCC(O)(CN4CCN(c5ccc(C6=C(c7ccccc7Cl)CCCc7cc(C(=O)O)ccc76)cc5)CC4)CC3)cc1)=N[C@@H](C)c1nnc(C)n1-2 [IV-18] | < 50 | < 50 | 500 to 2500 |  |  |  | 
4 | CC1=C(c2c(F)cc(F)cc2F)[C@H](c2ccc(OCCN3CCCC4(CCN(c5ccc(C6=N[C@@H](C)c7nnc(C)n7-c7sc(C)c(C)c76)cc5)CC4)C3)cc2)Oc2ccc(O)cc21 [V-5] | 50 to 500 | 50 to 500 | 500 to 2500 |  |  |  | 
5 | Cc1sc2c(c1C)C(c1ccc(N3CC4(CC(CN5CCC(c6ccc(C7=C(c8ccccc8)CCCc8cc(C(=O)O)ccc87)cc6)CC5)C4)C3)cc1)=N[C@@H](C)c1nnc(C)n1-2 [IV-41] | < 50 | < 50 | 50 to 500 |  |  |  | 
6 | CC1=C(c2c(F)cc(F)cc2F)[C@@H](c2ccc(C3CCN(CC4CCN(c5ccc(C6=N[C@@H](C)c7nnc(C)n7-c7sc(C)c(C)c76)cc5)CC4)CC3)cc2)Oc2ccc(O)cc21 [V-13] | 50 to 500 | 50 to 500 | 50 to 500 |  |  |  | 
7 | CC1=C(c2c(F)cc(F)cc2F)[C@@H](c2ccc(OCC(=O)N3CCCC4(CCN(c5ccc(C6=N[C@@H](Cc7ncco7)c7nnc(C)n7-c7sc(C)c(C)c76)cc5)C4)C3)cc2)Oc2ccc(O)cc21 (stereo partly drawn) [V-34] | 50 to 500 | 50 to 500 | 50 to 500 |  |  |  | 
8 | Cc1sc2c(c1C)C(c1ccc(Cl)cc1)=N[C@@H](CC(=O)NCCCCOCCOc1ccc(C(=O)c3c(-c4ccc(Br)cc4)sc4cc(O)ccc34)cc1)c1nnc(C)n1-2 [I-28, (S)—N-(4-(2-(4-(2-(4-bromophenyl)-6-hydroxybenzo[b]thiophene-3-carbonyl)phenoxy)ethoxy)butyl)-2-(4-(4-chlorophenyl)-2,3,9-trimethyl-6H-thieno[3,2-f][1,2,4]triazolo[4,3-a][1,4]diazepin-6-yl)acetamide] | 50 to 500 |  |  |  |  | 50 to 500 | 500 to 2500
9 | CC1=C(c2c(F)cc(F)cc2F)[C@H](c2ccc(OCCN3CCC[C@@]4(CCN(c5ccc(C6=N[C@@H](C)c7nnc(C)n7-c7sc(C)c(C)c76)cc5)C4)C3)cc2)Oc2ccc(O)cc21 [V-8] | 50 to 500 | < 50 | 500 to 2500 |  |  |  | 

The next lines start with results.

Row | GI50 [1] [nM] | SMILES | GI50 [2, 4] [nM] | GI50 [3, 5] [nM] | GI50 ([2]; Table 7-B, T-Rex 293 cells with doxycycline (increased ERα expression), CellTiter-Glo, read-out: (+) Dox GI50) [nM] | GI50 ([3]; Table 7-B, T-Rex 293 cells without doxycycline (lacking increased ERα expression), CellTiter-Glo, read-out: (−) Dox GI50) [nM] | GI50 ([2]; T-Rex 293 cells with doxycycline-induced ERα expression, CellTiter-Glo 2.0, read-out: (+) Dox TRex ERa (GI50)) [nM] | GI50 ([3]; T-Rex 293 cells without doxycycline, CellTiter-Glo 2.0, read-out: (−) Dox TRex ERa (GI50)) [nM]
10 | < 50 | Cc1sc2c(c1C)C(c1ccc(N3CCC(O)(CN4CCN(c5cc(F)c([C@@H]6c7ccc(O)cc7CC[C@@H]6c6ccccc6)c(F)c5)CC4)CC3)cc1)=N[C@@H](C)c1nnc(C)n1-2 [III-186] | < 50 | 500 to 2500 |  |  |  | 
11 | 50 to 500 | Cc1sc2c(c1C)C(c1ccc(N3CCC[C@@H](CNCCOc4ccc([C@@H]5c6ccc(O)cc6CC[C@@H]5c5ccccc5)cc4)C3)cc1)=NC(Cc1ncco1)c1nnc(C)n1-2 (stereo partly drawn) [III-54] | 50 to 500 | 50 to 500 |  |  |  | 
12 | 50 to 500 | Cc1sc2c(c1C)C(c1ccc(N3CCCC(CN(C)CCOc4ccc([C@@H]5c6ccc(O)cc6CC[C@@H]5c5ccccc5)cc4)C3)cc1)=NC(Cc1ncco1)c1nnc(C)n1-2 (stereo partly drawn) [III-44] | 50 to 500 | 500 to 2500 |  |  |  | 
13 | 50 to 500 | Cc1sc2c(c1C)C(c1ccc(N3CCO[C@@H](CNCCOc4ccc([C@@H]5c6ccc(O)cc6CC[C@@H]5c5ccccc5)cc4)C3)cc1)=NC(Cc1ncco1)c1nnc(C)n1-2 (stereo partly drawn) [III-66] | 50 to 500 | 50 to 500 |  |  |  | 
14 | 50 to 500 | Cc1sc2c(c1C)C(c1ccc(N3CC4(CC(CN5CCN(c6cc(F)c([C@H]7c8ccc(O)cc8CC[C@H]7c7ccc(F)cc7)c(F)c6)CC5)C4)C3)cc1)=N[C@@H](C)c1nnc(C)n1-2 [III-295] | 500 to 2500 | 500 to 2500 |  |  |  | 
15 | 50 to 500 | Cc1sc2c(c1C)C(c1ccc(N3CCC(CN4CCN(c5cc(F)c([C@H]6c7ccc(O)cc7CC[C@H]6c6ccccc6)cc5F)CC4)CC3)cc1)=N[C@@H](C)c1nnc(C)n1-2 [III-318] | 50 to 500 | 50 to 500 |  |  |  | 
16 | 50 to 500 | Cc1sc2c(c1C)C(c1ccc(N3CCC(O)(CN4CCN(c5ccc([C@H]6c7ccc(O)cc7CC[C@H]6c6cc(F)ccc6F)c(F)c5)CC4)CC3)cc1)=N[C@@H](C)c1nnc(C)n1-2 [III-273] | 50 to 500 | 50 to 500 |  |  |  | 
17 | < 50 | Cc1cc(N2CCN(CC3(O)CCN(c4ccc(C5=N[C@@H](C)c6nnc(C)n6-c6sc(C)c(C)c65)cc4)CC3)CC2)c(F)cc1[C@@H]1c2ccc(O)cc2CC[C@@H]1c1ccccc1 [III-286] | < 50 | 500 to 2500 |  |  |  | 
18 | < 50 | Cc1sc2c(c1C)C(c1ccc(OCCN3CCN(CCOc4ccc([C@H]5c6ccc(O)cc6CC[C@H]5c5ccccc5)cc4)CC3)cc1)=N[C@@H](Cc1ncco1)c1nnc(C)n1-2 [III-110] | < 50 | < 50 |  |  |  | 
19 | < 50 | Cc1sc2c(c1C)C(c1ccc(N3CC(O)(CC4CN(CC5CN(c6ccc([C@@H]7c8ccc(O)cc8CC[C@@H]7c7ccccc7)cc6)C5)C4)C3)cc1)=N[C@@H](C)c1nnc(C)n1-2 [III-241] | < 50 | 50 to 500 |  |  |  | 
20 | < 50 | Cc1sc2c(c1C)C(c1ccc(N3CCC(O)(CN4CCC(c5cc(F)c([C@@H]6c7ccc(O)cc7CC[C@@H]6c6ccc(F)cc6)c(F)c5)CC4)CC3)cc1)=N[C@@H](C)c1nnc(C)n1-2 (single isomer, unassigned) [III-245] | < 50 | 500 to 2500 |  |  |  | 
21 | 50 to 500 | Cc1sc2c(c1C)C(c1ccc(N3CCC(O)(CN4CCN(c5ccc([C@H]6c7ccc(O)cc7CC[C@H]6c6cccc(F)c6F)c(F)c5)CC4)CC3)cc1)=N[C@@H](C)c1nnc(C)n1-2 [III-271] | 50 to 500 | 50 to 500 |  |  |  | 
22 | 50 to 500 | Cc1sc2c(c1C)C(c1ccc(N3CCC(O)(CN4CCN(c5cc(F)c([C@H]6c7ccc(O)cc7CC[C@H]6c6ccccc6)c(F)c5)CC4)CC3)cc1)=N[C@@H](C)c1nnc(C)n1-2 [III-187] | < 50 | 50 to 500 |  |  |  | 
23 | < 50 | Cc1sc2c(c1C)C(c1ccc(N3C[C@@H]4C(NCCOc5ccc([C@H]6c7ccc(O)cc7CC[C@H]6c6ccccc6)cc5)[C@H]4C3)cc1)=NC(Cc1ncco1)c1nnc(C)n1-2 (stereo partly drawn) [III-347] |  |  | < 50 | < 50 |  | 
24 | 50 to 500 | Cc1sc2c(c1C)C(c1ccc(N[C@H]3CC[C@@H](NCCOc4ccc([C@@H]5c6ccc(O)cc6CC[C@@H]5c5ccccc5)cc4)CC3)cc1)=NC(Cc1ncco1)c1nnc(C)n1-2 (stereo partly drawn) [III-52] | 50 to 500 | 50 to 500 |  |  |  | 
25 | 500 to 2500 | Cc1sc2c(c1C)C(c1ccc(N3CCN(CC4CCN(c5ccc([C@H]6c7ccc(O)cc7CC[C@H]6c6ccccc6)cc5)CC4)CC3)cc1)=N[C@H](Cc1ncco1)c1nnc(C)n1-2 [III-2, (5S,6R)-6-phenyl-5-(4-(4-((4-(4-((R)-2,3,9-trimethyl-6-(oxazol-2-ylmethyl)-6H-thieno[3,2-f][1,2,4]triazolo[4,3-a][1,4]diazepin-4-yl)phenyl)piperazin-1-yl)methyl)piperidin-1-yl)phenyl)-5,6,7,8-tetrahydronaphthalen-2-ol] | > 2500 | > 2500 |  |  |  | 
26 | < 50 | CC1=C(C)C2C(c3ccc(N4CCC(C(=O)N5CC(c6ccc([C@@H]7c8ccc(O)cc8CC[C@@H]7c7ccccc7)cc6)C5)CC4)cc3)N[C@@H](Cc3ncco3)c3nnc(C)n3C2S1 (stereo partly drawn) [III-174] | < 50 | 50 to 500 |  |  |  | 
27 | < 50 | Cc1sc2c(c1C)C(c1ccc(N3CCC(O)(CN4CCN(c5cc(F)c([C@@H]6c7ccc(O)cc7CC[C@@H]6c6ccccc6)cc5F)CC4)CC3)cc1F)=N[C@@H](C)c1nnc(C)n1-2 [III-304] | < 50 | 500 to 2500 |  |  |  | 
28 | < 50 | Cc1sc2c(c1C)C(c1ccc(N3CCC(O)(CN4CCN(c5ccc([C@@H]6c7ccc(O)cc7CC[C@@H]6c6cccc(F)c6)c(F)c5)CC4)CC3)cc1)=N[C@@H](C)c1nnc(C)n1-2 [III-289] | < 50 | 500 to 2500 |  |  |  | 
29 | 50 to 500 | Cc1sc2c(c1C)C(c1ccc(N3CCOC4(CCN(CCOc5ccc([C@@H]6c7ccc(O)cc7CC[C@@H]6c6ccccc6)cc5)CC4)C3)cc1)=CC(Cc1ncco1)c1nnc(C)n1-2 (stereo partly drawn) [III-60] | 50 to 500 | 50 to 500 |  |  |  | 
30 | 50 to 500 | Cc1sc2c(c1C)C(c1ccc(N3CCC(O)(CN4CCN(c5ccc([C@H]6c7ccc(O)cc7CC[C@H]6c6ccc(F)cc6)cc5)CC4)CC3)cc1)=N[C@@H](Cc1ncco1)c1nnc(C)n1-2 [III-209] | < 50 | 50 to 500 |  |  |  | 
